Assay results: PubChem BioAssay (NCI)
Where “and” joins values, the source holds several entries; their conditions need not be identical. Identical values can stand only once.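 Five concentrations, 48 hours, 96-well plates. Abbreviation: GI50, concentration required for 50% inhibition of growth. TGI denotes the concentration required for complete inhibition of growth.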

Columns and labels:
Test in all cases: DTP human tumour cell line panel, 48 h
[1] = test system: OVCAR-8 ovarian
[2] = test system: DLD-1 colon
[3] = test system: EKVX NSCLC
[4] = test system: HOP-62 NSCLC
[5] = test system: MOLT-4 leukemia
[6] = test system: UACC-257 melanoma
[7] = test system: SK-OV-3 ovarian
[8] = test system: M19-MEL melanoma
[9] = test system: SF-539 CNS
[10] = test system: HS 578T breast

Structure (SMILES)	TGI [1]	TGI [2] [µM]	TGI [3]	TGI [4]	TGI [5]	TGI [6]	TGI [7]	TGI [8] [µM]	TGI [9] [µM]	GI50 [10] [µM]	TGI [10]	GI50 [1] [µM]	GI50 [9] [µM]	GI50 [4] [µM]	GI50 [6] [µM]	GI50 [7] [µM]	GI50 [2] [µM]	GI50 [3] [µM]	GI50 [5] [µM]
O=C1NC(c2ccc(O)cc2)C2CCC1C2 (stereo unspecified)	> 100 µM	> 100	> 100 µM	> 100 µM	> 100 µM	> 100 µM	> 100 µM	> 100											
O=[N+]([O-])[C@@H]1C2C=CC(C2)[C@H]1Cl (stereo partly specified)	> 100 µM	> 100	> 100 µM	> 100 µM	> 100 µM	> 100 µM	> 100 µM	> 100	> 100										
O=C(C#Cc1c[nH]c(=O)[nH]c1=O)c1ccccc1Cl	29.3 µM	29.3	36.5 µM	> 100 µM	44.3 µM	27.9 µM	> 100 µM		30										
COc1ccc2cc1Oc1ccc(cc1)C[C@H]1c3cc(c(OC)cc3CCN1C)Oc1c(OC)c(OC)cc3c1[C@H](C2)N(C)CC3	16.3 µM and 19.2 µM and > 100 µM	20.5		15.1 µM and 34.2 µM		11.4 µM and 14.6 µM and > 100 µM	15.3 µM and 34 µM and > 100 µM			13.1	19.1 µM and 28.2 µM and > 100 µM	6.53	2.03	15.1	4.06	17.6			
C1COCCN1.C1COCCN1.N.N.[Cl-].[Pt+2]	> 100 µM	> 100	> 100 µM						> 100			> 100	> 100				> 100	> 100	
Cc1ccc(-c2c(N)nc(NC#N)nc2CCC(=O)Nc2ccccc2[N+](=O)[O-])cc1		> 100	> 100 µM	> 100 µM	> 100 µM	> 100 µM	> 100 µM	> 100	> 100										
N#CC1(c2nc3ccccc3o2)C(=O)C(=O)N(C2C3CC4CC(C3)CC2C4)C(=O)C1=O (stereo unspecified)	> 100 µM		> 100 µM	> 100 µM	> 100 µM	> 100 µM	> 100 µM	> 100	> 100										
C=CCSC[C@H](NC(=O)COc1ccccc1)C(=O)NC(C(=O)OCc1ccc([N+](=O)[O-])cc1)=C(C)C	> 100 µM	> 100	> 100 µM	> 100 µM	88.1 µM	> 100 µM	> 100 µM	> 100											
CC(C)(C)OC(=O)NC(Cc1ccccc1)C(=O)OCN1C(=O)C2C3C=CC(C2C1=O)C1C2C(=O)N(COC(=O)C(Cc4ccccc4)NC(=O)OC(C)(C)C)C(=O)C2C31 (stereo unspecified)	> 100 µM		> 100 µM	> 100 µM	82.4 µM	> 100 µM	> 95.5 µM		> 100		54.3 µM								
Cc1nn(-c2ccc(F)cc2)c2ncnc(Nc3ccc(NC(=O)Nc4ccc(Cl)c(C(F)(F)F)c4)cc3)c12	10 µM		10.8 µM	6.83 µM	22.2 µM	5.99 µM	14.5 µM		3.08	2.66	9.47 µM	2.87	1.46	2.25	2.25	3.8		2.78	2.67
C=CC(=O)N[C@H]1C=C(C)c2c(-c3cnc4ccccc4c3)c3c(N)ncnc3n2C1	> 100 µM		42.6 µM	66.7 µM	> 100 µM	> 80.4 µM	4.2 µM		31.6	8.14	46.6 µM	16.7	13.3	20.9	13.4	0.171		0.0785	24.5
CCN1CCN(c2nc(NCCCNc3ccnc4cc(Cl)ccc34)c3ccccc3n2)CC1	12.9 µM		14.4 µM	4.91 µM	9.04 µM	3.97 µM	9.23 µM		3.34	2.24	6.22 µM	3.5	1.71	1.79	2.01	2.98		3.03	2.07
CC(C)(C)OC(=O)n1cc(CNC(=S)Nc2ccccc2)c2ccccc21	35.4 µM		21.5 µM	38 µM	> 100 µM	30.5 µM	90.1 µM		25.4	13.7	42.2 µM	16.9	12.3	17.2	10.9	26.4		4.15	3.88
Cc1ccn2c3c(c(C(=O)O)c2c1)C(=O)c1ccccc1C3=O	> 100 µM		> 100 µM	> 100 µM	> 100 µM	> 60.3 µM	> 100 µM		64.7	3.71	29.8 µM	> 100	4.46	5.93	4.41	> 100		48	> 100
O=C1CCCN(c2ccccc2)N1	> 100 µM		> 100 µM	> 100 µM	> 100 µM	> 100 µM	> 100 µM	> 100	> 100										
CCOC(=O)C1=C(C)Nc2ccccc2S1		> 100	> 100 µM	> 100 µM	> 100 µM	> 100 µM	> 100 µM	> 100	> 100										
C=C1CCC2C(/C=C(\C)CCC1O)OC(=O)C2C (stereo unspecified)	> 100 µM		> 100 µM	> 100 µM	58.2 µM	> 100 µM	> 100 µM		> 100	> 100	> 100 µM	> 100	> 100	> 100	> 100	> 100		> 100	19.6
C#Cc1cnc(=O)n(C2CC(O)C(CO)O2)c1 (stereo unspecified)	> 100 µM		> 100 µM	> 100 µM	> 100 µM	98.1 µM	> 100 µM		> 100	> 100	> 100 µM	> 100	> 100	> 100	> 54.5	> 100		> 100	98.9

Structure (SMILES)	TGI [1]	TGI [2] [µM]	TGI [3]	TGI [4]	TGI [5]	TGI [6]	TGI [7]	TGI [8] [µM]	TGI [9] [µM]	GI50 [10] [µM]	TGI [10]	GI50 [1] [µM]	GI50 [9] [µM]	GI50 [4] [µM]	GI50 [6] [µM]	GI50 [7] [µM]	GI50 [2] [µM]	GI50 [3] [µM]	GI50 [5] [µM]
Cc1ccccc1C(C#N)C(=O)C(=O)Nc1nc([N+](=O)[O-])cs1 (stereo unspecified)	> 100 µM	> 100	> 100 µM	> 100 µM		> 100 µM	> 100 µM	> 100	> 100										
O=C(CCN1CCN(c2cnc3ccccc3n2)CC1)c1csc2ccccc12	> 100 µM		> 100 µM	> 100 µM	> 100 µM	> 100 µM	> 100 µM		77.9	43.6	> 100 µM	> 100	29.3	58.6	> 100	> 100		36	35.7
CN1CCN(Cc2ccc(C(=O)Nc3cncc(C#Cc4cnc(N)c5ccccc45)c3)cc2C(F)(F)F)CC1	5.38 µM		6.06 µM	4.42 µM	5.31 µM	4.34 µM	22.9 µM		2.89	2.98	14.6 µM	2.32	1.54	2.19	2.14	10.8		1.99	2.17
C=C1C(O)C2CCC(C)(C)C(=O)C2=C(CC(C)C)C12CC2 (stereo unspecified)	> 100 µM		> 100 µM	> 100 µM	> 100 µM	> 100 µM	> 100 µM		> 100	18.9	92.9 µM	> 100	70.7	76.6	88	> 100		78.7	33.1
Cc1ccc2c(C(C[N+](=O)[O-])c3cccs3)c(-c3ccccc3)[nH]c2c1 (stereo unspecified)	> 33.3 µM		14.9 µM	11.7 µM	> 33.3 µM	13.7 µM	19.7 µM		6.21	1.57	9.53 µM	3.55	1.54	2.25	3.88	3.44		2	1.53
O=C1/C(=C/c2ccc(F)cc2)CCOc2ccc([N+](=O)[O-])cc21	9.24 µM		30.5 µM	8.33 µM	6.02 µM	6.29 µM	32.6 µM		5.99	4.94	47.1 µM	2.68	2.52	2.89	2.62	17		16.5	2.49
C=C1C(=O)O[C@H]2[C@H]1CC/C(CNC(=O)c1c[nH]c3ccc(F)cc13)=C\CC[C@@]1(C)O[C@@H]21	10.3 µM		5.6 µM	19.7 µM	4.53 µM	4.89 µM	22.7 µM		2.81	2.65	13.1 µM	2.61	1.37	4.12	2.06	10.8		1.68	1.32
NC(N)=N/N=C(/c1ccccc1)c1ccc(F)cc1	> 35.1 µM		36.5 µM	13.1 µM	> 38.1 µM	32.8 µM	12.8 µM		0.902	0.452	27.7 µM	0.593	0.271	0.85	2.94	0.371		0.65	2.67
O=C(c1ccc2ccccc2c1)c1c(C(F)(F)F)n([O-])c2cc(Cl)c(Cl)cc2[n+]1=O	3.27 µM		3.47 µM	3.03 µM	2.84 µM	3.03 µM	3.15 µM		2.93	1.85	4.15 µM	1.61	1.59	1.64	1.63	1.58		2.04	1.14
COc1ccc(C(=S)N2CCN(c3cccc(Cl)c3)CC2)cc1	> 100 µM		> 100 µM	> 100 µM	> 100 µM	> 100 µM	> 100 µM		> 100	> 100	> 100 µM	> 100	> 100	> 100	> 100	> 100		91.7	> 100
CCOC(=O)C1(CC)CCCCC(=O)N1 (stereo unspecified)	> 100 µM	> 100	> 100 µM	> 100 µM			> 100 µM	> 100											
CSC1=NC=CCN1C	> 100 µM	> 100	> 100 µM	> 100 µM	> 100 µM	> 100 µM	> 100 µM	> 100											
CCn1c(-c2nonc2N)nc2c(C#CCN)ncc(OCCCN)c21	> 25 µM		> 25 µM	> 25 µM	> 25 µM	> 25 µM	> 25 µM		> 25	> 25	> 25 µM	> 25	> 25	> 25	> 25	> 25		> 25	> 25
COC1(C(=O)N2Cc3nc(Cl)nc(N[C@H](C)c4cc(N)cc(C(F)(F)F)c4)c3C2)CCOCC1	> 88.5 µM		> 100 µM	36 µM	50.5 µM	37.3 µM	58.5 µM		29.8	17.7	80.3 µM	23.1	15.2	15.2	17.2	17.7		14.1	9.05
Clc1ccccc1C(c1ccccc1)(c1ccccc1)n1ccnc1	20 µM and 26.3 µM		13.7 µM and 23.7 µM	12.5 µM and 26.6 µM	6.87 µM and 57.7 µM	14.2 µM and 25.2 µM	13.7 µM and 29.2 µM		11.1	3.45	19.7 µM and 35.2 µM	2.69	3.22	2.99	3.43	3.71		2.41	1.96
COc1ccc(-c2cc(-c3cc(Cl)ccc3Cl)nc3[nH]c(-c4cc(F)c(Cl)cc4Cl)cc(=O)c23)cc1	51.3 µM		> 100 µM	32.2 µM	68.6 µM	> 100 µM	> 100 µM		55	8.19	50.4 µM	17	18.9	5.52	21	84.6		45	24.2
CC(C)(C)c1cc(O)c(O)c(C(C)(C)C)c1	16.4 µM		17.5 µM	29 µM	8.67 µM	7.4 µM	22.6 µM		11	3.9	26.7 µM	3.48	3.47	8.96	2.42	10.3		3.76	3.03
